# Measurements published in article PMC12320693, “Non-edible onion skin waste as a source of bioactive agents for functional foods development: Chemical composition and multifunctional bioactivity” (Food Chemistry: X, 2025).
# Read-outs that look alike come from different tables or passages of the source.
# Assays:
# [1] = tested on: Candida albicans (ATCC 10231); test: Antifungal activity, Candida albicans; format: cell-based
# Procedure: (§1) Three yeast strains (Candida albicans (ATCC 10231), Candida krusei (ATCC 6258), and Cryptococcus neoformans (CECT1078)) and filamentous fungi (one Aspergillus fumigatus (ATCC 204305) and three dermatophytes (Trichophyton rubrum (FF5), Nannizzia gypsea (formerly Microsporum gypseum-FF3) and Epidermophyton floccosum (FF9)) were used in this work. Sub-cultures were prepared in Sabouraud Dextrose Agar medium (SDA) from 1–2 days (yeasts and Aspergillus) to 5–7 days (dermatophytes) to ensure optimal growth conditions and purity.
# (§2) Fungal organisms were cultured in SDA and then suspended in RPMI-1640 broth. Serial dilutions of the onion skin extract solutions, prepared from a stock solution (8 mg/mL in DMSO), were prepared in RPMI-1640 broth, starting at a concentration of 4 mg/mL. Sample dilutions and cell suspensions were distributed into 96 well plates and incubated under aerobic, humid conditions at 26 °C for dermatophytes and 36 °C for the other organisms. Incubation times were 5 to 7 days for dermatophytes, 72 h for C. neoformans, and 48 h for the remaining organisms. […] In cases where MIC was determined, 20 μL from wells without visible growth were cultured on SDA plates, incubating under the same conditions previously described for each organism. The Minimal Fungicidal Concentration (MFC) was then determined as the lowest concentration where complete no growth was observed on the SDA plates. All the experiments were conducted in triplicate.
# α-glucosidase = target: T1, α-glucosidase (Saccharomyces cerevisiae, UniProt P53341); test: α-Glucosidase activity assay (pure enzyme); format: biochemical
# T1 construct: purchased Sigma-Aldrich (St. Louis, MO, USA)
# Procedure: Enzymes for in vitro enzymatic assays were aldose-reductase (Homo sapiens, human) from Prozomix (UK), α-amylase (porcine pancreas), α-glucosidase (Saccharomyces cerevisiae), acetylcholinesterase from Electrophorus electricus, lipoxygenase from Glycine max (soybean), tyrosinase from mushroom, xanthine oxidase from bovine milk, all provided by Sigma-Aldrich (St. Louis, MO, USA).
# α-Glucosidase activity was evaluated incubating 180 μL of a mixture of the extract solutions, prepared in 10 mM potassium phosphate buffer (pH 7.0), and 20 μL of the enzyme solution at 37 °C for 2 min. Absorbance at 405 nm was measured after adding 100 μL of 2.5 mM 4-nitrophenyl-α-D-glucopyranoside, and after 10 min incubation.
# xanthine oxidase = target: T2, xanthine oxidase (Bos taurus, UniProt P80457); test: Xanthine oxidase inhibition assay; format: biochemical
# T2 construct: purchased Sigma-Aldrich (St. Louis, MO, USA); host or cells: bovine milk
# Procedure: Xanthine oxidase activity was determined using a previously established method by monitoring the conversion of xanthine to uric acid ([Trigueros, Oliveira, et al., 2024]). 200 μL of the extract solutions, diluted in 5 mM phosphate buffer (pH 7.4), was mixed with 10 μL of xanthine oxidase solution, incubated for 5 min at 37 °C, followed by the addition of 40 μL of 1.25 mM xanthine solution, and absorbance was measured at 295 nm. A control assay was prepared with buffer.
# [2] = ref Yuting et al., 1990; cited from earlier work
# [3] = tested on: Candida krusei (ATCC 6258); test: Antifungal activity, Candida krusei; format: cell-based; conditions: Pichia kudriavzevii, ATCC6258
# Procedure: as §1, §2
# [4] = Nitric oxide radical scavenging activity; format: biochemical
# Procedure: The capacity of the onion skin extracts to scavenge the nitric oxide (^●NO) radical was assessed using the method described by [Ferreres et al. (2021)]. This involved mixing 100 μL of the extract solutions, diluted in 0.1 M phosphate buffer (pH 7.4), with the same volume of 20 mM sodium nitroprusside dihydrate. After a 60 min incubation under light, the Griess reagent (100 μL) was added, followed by 10 min incubation in the dark, and absorbance was measured at 560 nm. Quercetin was used as positive control. At least five different concentrations were tested for each onion skin extract, with a minimum of three independent experiments conducted in triplicate. A control was prepared replacing sample with buffer, and a blank with phosphoric acid instead of the Griess reagent.
# acetylcholinesterase = target: T3, acetylcholinesterase (Electrophorus electricus, UniProt O42275); test: Acetylcholinesterase (AChE) inhibition assay; format: biochemical
# T3 construct: purchased Sigma-Aldrich (St. Louis, MO, USA)
# Procedure: Acetylcholinesterase activity was assessed combining 75 μL of the extract solutions, prepared in 50 mM Tris-HCl buffer (pH 8.0), plus 0.1 % (w/v) albumin, with 25 μL of 15 mM ATCI and 125 μL of 3 mM DTNB. The formation of 5-thio-2-nitrobenzoate was monitored at 405 nm ([Trigueros, Oliveira, et al., 2024]).
# [5] = tested on: Trichophyton rubrum (FF5); test: Antifungal activity, Trichophyton rubrum; format: cell-based
# Procedure: as §1, §2
# [6] = Superoxide anion radical scavenging activity; format: biochemical
# Procedure: The ability of the onion skin extracts to scavenge the superoxide anion (O2^●-) radical was determined according to [Ferreres et al. (2021)]. Equal volumes (50 μL) of the extract solutions, diluted in 19 mM phosphate buffer (pH 7.4), and 0.166 mM NADH, and three volumes of 0.043 mM nitrotetrazolium blue chloride were combined. The reaction was initiated by adding 50 μL of 2.7 μM phenazine methosulfate, and absorbance was recorded at 560 nm. A control was prepared substituting sample with buffer.
# [7] = set-up: method as in Li et al., 2011; conditions: ref Li et al., 2011; cited from earlier work
# [8] = tested on: Aspergillus fumigatus (ATCC 204305); test: Antifungal activity, Aspergillus fumigatus; format: cell-based
# Procedure: as §1, §2
# [9] = tested on: Cryptococcus neoformans (CECT1078); test: Antifungal activity, Cryptococcus neoformans; format: cell-based
# Procedure: as §1, §2
# [10] = tested on: Nannizzia gypsea (formerly Microsporum gypseum-FF3); test: Antifungal activity, Nannizzia gypsea; format: cell-based
# Procedure: as §1, §2
# [11] = set-up: method as in Li et al., 2011; conditions: ref Li et al., 2011; cited from earlier work; remark: listed apart in the source
# [12] = tested on: Epidermophyton floccosum (FF9); test: Antifungal activity, Epidermophyton floccosum; format: cell-based
# Procedure: as §1, §2
# [13] = set-up: method as in Li et al., 2011; conditions: ref Li et al., 2011; cited from earlier work; remark: listed apart in the source
# 5-LOX (lipoxygenase) = target: T4, 5-LOX (lipoxygenase) (Glycine max, UniProt P08170); test: Lipoxygenase (5-LOX) activity assay; format: biochemical, Glycine max (soybean)
# T4 construct: purchased Sigma-Aldrich (St. Louis, MO, USA)
# Procedure: The ability of the extracts and pure compounds to inhibit 5-LOX activity was assessed by measuring their capacity to prevent linoleic oxidation. In short, 200 μL of the extract solutions, diluted in 100 mM phosphate buffer (pH 9.0), was mixed with 20 μL of the enzyme solution and 20 μL of 4.18 mM linoleic acid prepared in ethanol, and the absorbance at 234 nm was measured. A control was prepared with buffer instead of sample ([Trigueros, Oliveira, et al., 2024]).
# [14] = tested on: NO production in LPS-induced BV-2 cells; set-up: method as in Sun et al., 2015; conditions: ref Sun et al., 2015; cited from earlier work
# [15] = 100 % growth inhibition, read-out: MIC
# T1 sequence (P53341 whole entry): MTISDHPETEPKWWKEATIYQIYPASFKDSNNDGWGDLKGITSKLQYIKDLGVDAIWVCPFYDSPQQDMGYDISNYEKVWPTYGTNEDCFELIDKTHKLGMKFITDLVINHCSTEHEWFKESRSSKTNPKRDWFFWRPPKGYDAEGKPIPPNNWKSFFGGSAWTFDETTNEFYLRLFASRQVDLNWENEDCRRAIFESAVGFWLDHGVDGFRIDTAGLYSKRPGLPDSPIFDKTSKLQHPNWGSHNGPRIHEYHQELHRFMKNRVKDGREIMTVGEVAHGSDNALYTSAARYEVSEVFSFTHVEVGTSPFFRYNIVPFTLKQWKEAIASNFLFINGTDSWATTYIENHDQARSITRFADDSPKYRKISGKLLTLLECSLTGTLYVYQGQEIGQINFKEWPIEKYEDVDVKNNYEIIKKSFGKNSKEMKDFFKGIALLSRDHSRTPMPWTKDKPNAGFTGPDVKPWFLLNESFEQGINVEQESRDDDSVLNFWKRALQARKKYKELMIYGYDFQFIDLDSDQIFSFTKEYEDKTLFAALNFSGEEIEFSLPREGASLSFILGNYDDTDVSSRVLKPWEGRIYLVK
# T2 sequence (P80457 whole entry): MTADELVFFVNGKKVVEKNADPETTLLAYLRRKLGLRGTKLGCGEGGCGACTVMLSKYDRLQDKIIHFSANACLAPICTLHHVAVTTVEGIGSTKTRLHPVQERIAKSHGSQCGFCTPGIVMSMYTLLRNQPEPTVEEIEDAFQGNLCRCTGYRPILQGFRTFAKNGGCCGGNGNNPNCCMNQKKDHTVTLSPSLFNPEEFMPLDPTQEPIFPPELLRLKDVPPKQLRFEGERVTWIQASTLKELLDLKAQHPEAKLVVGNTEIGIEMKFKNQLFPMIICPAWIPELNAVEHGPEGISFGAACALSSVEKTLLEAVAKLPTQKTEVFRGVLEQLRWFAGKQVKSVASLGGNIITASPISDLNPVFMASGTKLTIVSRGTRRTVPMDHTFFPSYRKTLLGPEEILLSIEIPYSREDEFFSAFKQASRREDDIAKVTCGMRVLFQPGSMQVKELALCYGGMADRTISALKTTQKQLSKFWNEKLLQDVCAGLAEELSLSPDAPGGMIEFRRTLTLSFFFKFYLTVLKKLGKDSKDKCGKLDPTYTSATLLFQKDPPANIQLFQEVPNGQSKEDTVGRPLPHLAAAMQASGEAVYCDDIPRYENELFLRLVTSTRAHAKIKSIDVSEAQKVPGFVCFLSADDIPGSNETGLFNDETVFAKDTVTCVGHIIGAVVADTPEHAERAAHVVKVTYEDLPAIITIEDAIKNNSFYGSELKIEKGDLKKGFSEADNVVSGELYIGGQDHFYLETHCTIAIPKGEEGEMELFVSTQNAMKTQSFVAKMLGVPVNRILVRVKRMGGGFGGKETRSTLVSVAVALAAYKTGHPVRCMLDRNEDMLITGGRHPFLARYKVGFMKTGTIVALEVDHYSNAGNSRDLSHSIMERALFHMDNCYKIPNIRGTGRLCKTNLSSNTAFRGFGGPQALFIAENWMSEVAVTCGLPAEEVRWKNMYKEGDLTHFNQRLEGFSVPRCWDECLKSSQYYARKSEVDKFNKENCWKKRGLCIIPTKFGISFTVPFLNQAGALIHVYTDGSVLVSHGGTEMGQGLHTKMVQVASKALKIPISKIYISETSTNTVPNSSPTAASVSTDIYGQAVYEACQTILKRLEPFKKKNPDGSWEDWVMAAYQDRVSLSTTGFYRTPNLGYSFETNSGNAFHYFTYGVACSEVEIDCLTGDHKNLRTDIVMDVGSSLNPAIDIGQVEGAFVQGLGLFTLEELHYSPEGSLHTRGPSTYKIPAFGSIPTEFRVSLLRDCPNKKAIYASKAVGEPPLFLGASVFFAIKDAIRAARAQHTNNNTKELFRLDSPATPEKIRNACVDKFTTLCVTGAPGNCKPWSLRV
# T4 sequence (P08170 whole entry): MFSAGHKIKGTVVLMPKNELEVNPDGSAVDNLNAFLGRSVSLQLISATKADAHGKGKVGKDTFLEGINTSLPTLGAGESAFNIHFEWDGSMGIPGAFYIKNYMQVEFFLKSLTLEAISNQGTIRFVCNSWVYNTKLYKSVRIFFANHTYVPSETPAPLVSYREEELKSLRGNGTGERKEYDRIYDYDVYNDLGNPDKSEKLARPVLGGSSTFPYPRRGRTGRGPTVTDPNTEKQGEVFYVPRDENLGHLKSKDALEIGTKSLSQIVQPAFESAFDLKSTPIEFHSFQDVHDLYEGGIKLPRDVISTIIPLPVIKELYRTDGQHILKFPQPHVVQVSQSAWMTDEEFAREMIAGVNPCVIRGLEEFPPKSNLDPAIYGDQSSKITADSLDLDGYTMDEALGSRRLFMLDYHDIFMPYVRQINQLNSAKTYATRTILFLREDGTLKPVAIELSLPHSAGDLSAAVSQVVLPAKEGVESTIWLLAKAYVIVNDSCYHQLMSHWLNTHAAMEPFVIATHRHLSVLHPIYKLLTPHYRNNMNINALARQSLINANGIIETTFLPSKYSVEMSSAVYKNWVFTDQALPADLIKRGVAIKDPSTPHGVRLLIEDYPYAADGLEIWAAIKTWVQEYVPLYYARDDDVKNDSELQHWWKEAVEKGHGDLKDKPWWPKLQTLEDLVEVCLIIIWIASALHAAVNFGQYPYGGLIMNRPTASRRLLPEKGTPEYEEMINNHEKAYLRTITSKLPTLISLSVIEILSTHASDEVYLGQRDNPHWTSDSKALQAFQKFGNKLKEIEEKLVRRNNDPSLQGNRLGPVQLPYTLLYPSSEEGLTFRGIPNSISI
# T3 sequence (O42275 24-633): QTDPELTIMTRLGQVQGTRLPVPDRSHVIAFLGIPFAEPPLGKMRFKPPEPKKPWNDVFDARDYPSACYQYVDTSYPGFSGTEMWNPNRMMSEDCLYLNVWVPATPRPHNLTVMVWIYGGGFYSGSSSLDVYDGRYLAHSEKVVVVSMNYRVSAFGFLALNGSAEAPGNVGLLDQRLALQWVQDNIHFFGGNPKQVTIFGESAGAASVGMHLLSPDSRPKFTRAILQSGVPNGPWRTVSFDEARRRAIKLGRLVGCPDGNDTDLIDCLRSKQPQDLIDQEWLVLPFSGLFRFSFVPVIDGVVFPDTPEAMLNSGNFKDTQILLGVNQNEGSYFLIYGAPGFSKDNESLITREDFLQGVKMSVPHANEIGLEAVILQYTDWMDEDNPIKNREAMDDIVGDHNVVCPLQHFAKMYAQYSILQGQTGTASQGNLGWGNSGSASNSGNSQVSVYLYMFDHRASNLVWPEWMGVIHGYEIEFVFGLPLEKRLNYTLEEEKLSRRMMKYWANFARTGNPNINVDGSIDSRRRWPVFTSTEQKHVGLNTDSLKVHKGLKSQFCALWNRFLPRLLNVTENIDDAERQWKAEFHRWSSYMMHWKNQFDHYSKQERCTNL
structure (smiles),measurement,setting,value
O=C(O)c1ccc(O)c(O)c1 [Protocatechuic acid],MFC,[1]; ATCC10231,> 4000 µg/mL
same,MIC,[1]; ATCC10231,> 4000 µg/mL
same,IC50,α-glucosidase,2760 µM
same,IC50,xanthine oxidase,908 µM
same,"IC50, O2●- scavenging",[2],310 µg/mL
same,MFC,[3],> 4000 µg/mL
same,MIC,[3],> 4000 µg/mL
same,"IC25, ●NO scavenging",[4],237 ± 16 µg/mL
same,●NO scavenging activity,[4]; at the maximum tested concentration (1.33 mg/mL),below 40%
same,"IC25, AChE",acetylcholinesterase,1809 ± 31 µg/mL
same,MFC,[5],2000 µg/mL
same,MIC,[5],2000 µg/mL
same,MIC,"[5]; read-out: MIC, 90 % growth inhibition",1000 µg/mL
same,"IC50, O2●- scavenging",[6],252 ± 8 µg/mL
same,"IC50, DPPH",[7],1.88 µg/mL
same,MFC,[8]; ATCC204305,> 4000 µg/mL
same,MIC,[8]; ATCC204305,> 4000 µg/mL
same,MFC,[9]; CECT1078,2000 µg/mL
same,MIC,"[9]; CECT1078, read-out: MIC, ≥ 95 % growth inhibition",1000 µg/mL
same,MFC,[10],> 4000 µg/mL
same,MIC,[10],> 4000 µg/mL
same,"IC50, ABTS",[11],0.89 µg/mL
same,MFC,[12],2000 µg/mL
same,MIC,[12],500 µg/mL
same,"IC50, hydroxyl radicals",[13],74 µg/mL
same,IC50,5-LOX (lipoxygenase),247 µM
O=c1c(O)c(-c2ccc(O)c(O)c2)oc2cc(O)cc(O)c12 [Quercetin],MIC,"[1]; ATCC10231, 100 % growth inhibition, read-out: MIC",> 4000 µg/mL
same,MFC,"[1]; ATCC10231, read-out: MFC",> 4000 µg/mL
same,concentrations effectively reducing NO production,[14],above 5 μM
same,MIC,"[3]; Candida krusei, 100 % growth inhibition, read-out: MIC",≥ 4000 µg/mL
same,MFC,"[3]; Candida krusei, read-out: MFC",> 4000 µg/mL
same,"IC50, ●NO scavenging",[4],49 ± 2 µg/mL
same,MIC,[5]; [15],1000 µg/mL
same,MFC,[5]; read-out: MFC,1000 µg/mL
same,"IC50, O2●- scavenging",[6],22.4 ± 1.1 µg/mL
same,MIC,"[8]; ATCC204305, 100 % growth inhibition, read-out: MIC",> 4000 µg/mL
same,MFC,"[8]; ATCC204305, read-out: MFC",> 4000 µg/mL
same,MIC,"[9]; CECT1078, 100 % growth inhibition, read-out: MIC",1000 µg/mL
same,MFC,"[9]; CECT1078, read-out: MFC",2000 µg/mL
same,MIC,"[9]; CECT1078, read-out: MIC, 90 % growth inhibition, 90 %",750 µg/mL
same,MIC,[10]; [15],> 4000 µg/mL
same,MFC,[10]; read-out: MFC,> 4000 µg/mL
same,MIC,[12]; [15],500 µg/mL
same,MFC,[12]; read-out: MFC,1000 µg/mL
